This is an account of results in US20250144168A1, “LANTHIPEPTIDES AND METHODS OF USE” (priority 2022, published 2025).

The subject of one assay is M. luteus. The assay can be described thus: Zone of inhibition of the isolated peptides (spot-on-lawn). Conditions: lantibiotic-sensitive target M. luteus. It counts as cell-based. As for the experimental part: Pure and homogenized SALI-10 colonies were selected to inoculate 10 ml of TSB supplemented with 2% yeast extract. The fermentation was carried out overnight at 37° C. with 5% CO2 for 18 h. The produced culture was used to inoculate 20 Petri dishes (100 mm), each containing 20 mL of TSA supplemented with 2% yeast extract and 0.2% CaCO3 and incubated as mentioned above (step 1). The agar cultures were then cut into small pieces and put into 250 mL centrifugation bottles. The bottles were incubated at −80° C. for 18 h and thawed immediately in a 70° C. water bath to produce liquid material. The liquid material was then collected by centrifugation, and the resultant supernatant was extracted with one volume of chloroform. The white precipitate from chloroform extraction was dried and resuspended in 2 ml of 35% acetonitrile in water (v/v). Centrifugation was performed to remove insoluble material to produce a clear peptide extract (we call it material A). The process was repeated with induction procedure by adding 50 μl of material A to 50 ml of TSB supplemented with yeast extract and inoculating this media with SALI-10 strain by repeating step 1 and generating 300 induced agar cultures instead of 20. The induced and chloroform extracted peptide was dried as in step 1 and resuspended in 20 ml of 35% ACN in water (v/v) supplemented with 0.1% TFA. The peptides preparation was processed via solid-phase extraction using C18 Sep-Pak® column (Waters, USA) prewashed with methanol and water. After loading the peptides sample, the column was washed with 10 mL of increasing methanol concentrations (10%, 30%, 50%, 70%). Active peptides were eluted with 95% methanol supplemented with 0.1% TFA. The peptides were finally purified using HPLC and C18-Reversed Phase chromatography as mentioned previously. Eluted fractions (1 ml per minute) were tested for antimicrobial activity against the sensitive strain M. luteus ATCC10240 using the spot-on-lawn method.

Assay [1] deals with isolated human neutrophils. The assay can be described thus: Neutrophil chemotaxis assay (Zigmond chamber). The format is cell-based. As for the experimental part:
A suspension of 1×10^6 human PMNs in 100 μL HBSS containing 1% gelatin (Sigma-Aldrich) was placed on a 5% bovine serum albumin-coated 22×40 mm glass coverslip and incubated for 10 minutes at 37° C. Coverslips were then inverted onto a Zigmond chamber. Hundred microliters of HBSS and 100 μL HBSS containing N-formyl-methionyl-leucyl-phenylalanine (fMLP) 10^-6M or different concentrations of salivaricin 10 were added to the left and right chambers, respectively. PMN migration across the chamber was recorded with time-lapse of video microscopy at 20 second intervals for a period of 10 minutes using a Zeiss Motorized AxioVert (ZEISS). Captured images were analyzed using cell-tracking software (Retrac, v2.1.0.).

For assay [2], the system named is saliva-derived multispecies biofilms. In words: Preformed saliva-derived multispecies biofilm, Live/Dead confocal microscopy. The format is cell-based, human saliva bacteria. Conditions: salivaricin 10 at 25 and 50 μg·ml^−1; nisin A at 50 μg·ml^−1; 20 min. As for the experimental part: Biofilms were formed ex-vivo using cell-free saliva as a medium and total salivary cell as inoculum (from healthy subjects). Twenty-four hours pre-formed multispecies biofilms grown anaerobically were treated with either nisin A (50 μg·ml^−1) or two concentrations of salivaricin 10 (25 and 50 μg·ml^−1) for a time exposure of 20 min. […] Salivaricin 10 penetrated saliva-derived multispecies biofilms and effectively killed the bacterial cells within (labeled with PI, lighter gray). No such effect was noticed with untreated (PBS) biofilms controls where the viable cells labeled mainly with Syto9, black. the ratio of live to dead cells decreased by a factor of 6 times compared to PBS treated conditions. […] This dose-dependent reduction in the oral biofilm thickness was reported previously for nisin A [27].
12. Antimicrobial Activity Against Preformed Biofilms (Saliva-Derived De Novo Model)
Saliva-derived biofilms were established in 24 well glass bottom sensoplates (Greiner Bio-One, Monroe, NC, USA) as mentioned previously. […] The mean Intensity of pixels for viable signals (Syto-9; live) and (PI; dead) were measured within biofilm areas of each image with the slices containing the highest respective signal intensity using custom Fiji (ImageJ). […] All quantifications and statistical calculations are based on 10-15 images and 5-10 stacks for each repeat (three repeats). […]

Assay [3] shares this test system. The assay can be described thus: Preformed saliva-derived multispecies biofilm, 16S rRNA gene sequencing. It counts as cell-based, human saliva bacteria. An excerpt:
13. 16S rRNA Gene Sequencing […] 14. […] The UNOISE pipeline, available through […]11.0.667 and […]2.10.4, was used for sequence analysis. […] 5, a -[…] […] 1.0.

Assay [4] has as its system human whole blood neutrophils and monocytes. In words: Whole blood phagocytosis (pHrodo) and CD marker flow cytometry. The note with it: N-terminal analogues, unlike full-length salivaricin 10. It counts as cell-based. An excerpt:
Neutrophils and monocytes display different activation states characterized by expression levels of cell surface CD marker in the oral cavity depending on the bacteria that they are interacting with. In health, neutrophils in the oral cavity are in a parainflammatory state, and with dysbiosis neutrophil phenotypes change towards a proinflammatory state. To determine if salivaricin 10 can prime neutrophils to augment pathogen elimination through phagocytosis, the surface expression of specific activation CD markers was assessed on human and murine neutrophils stimulated either with pHrodo (pH-sensitive, heat killed E. coli) alone or with salivaricin 10 and pHrodo. […]
SONY SA3800 flow cytometer was used to acquire the data. […] To validate the gating strategy and antibody labeling FMO (fluorescence minus one) controls were used. […]
Data were analyzed by FlowJo software (v10.8; Tree Star). The mean fluorescence intensities (MFIs) for each CD marker were measured. Significant differences (P<0.05) were determined using GraphPad Prism 9 (GraphPad Software, Inc.). for the in-vitro human blood and mouse bone marrow assay paired Student's t-test (n=3) was used for the statistical analysis. […]

The test system of assay [5] is CXCL10 and TGM2 gene expression in M1 macrophages. The assay can be described thus: Macrophage gene expression assay (CXCL10, TGM2). It counts as cell-based. Conditions: 40 μg/mL.

Square brackets hold non-standard residues; d marks the D form. Ends that are not written are not given here. pT = C[C@@H](OP(=O)(O)O)[C@H](N)C(=O)O

For “GWFTAVQLTLAGRCGRWFTGSYECTTNNVKCG (cysteine pairing not given here; also: lanthionine modifications; listed as Streptococcus salivarius) [SrnA2, major lanthipeptide of salivaricin 10, tyrosine at position 22]”, the “antimicrobial activity (zone of inhibition) of the isolated peptide” value with M. luteus is “more extensive zone of inhibition”.
Turning to `CSCC[C@H](NC=O)C(=O)N[C@@H](CC(C)C)C(=O)N[C@@H](Cc1ccccc1)C(=O)O` [fMLP, N-formyl-methionyl-leucyl-phenylalanine, reference compound], the neutrophil migration speed in assay [1] (control peptide) was ~11 μm/minute.
In the case of nisin A, the “damage to biofilm architecture (confocal images)” value in assay [2] was “significant and critical damage to the biofilm architecture”. Also, in assay [3], the “S. gordonii, S. parasanguinis levels in the biofilm” value is recorded as “strongly inhibited”. In assay [3] (salivaricin 10 at 25 μg and 50 μg), the “commensal species of the genera Veillonella, Streptococcus and Haemophilus in the biofilm” value was “disrupted the indigenous oral biofilm, including beneficial commensals”.
As for “GWSTAVRLTVQGRCGWWFTHSYECTSPNVRCG (cysteine pairing not given here; also: lanthionine modifications; listed as Streptococcus salivarius) [SrnA4]”, the “antimicrobial activity (zone of inhibition) of the isolated peptide” value in the assay on M. luteus is listed as “Reduced antimicrobial activity”.
With “NH2-GWFTAVQL-COOH (H-GWF[pT]AVQL-OH; SMILES CC(C)C[C@H](NC(=O)[C@H](CCC(N)=O)NC(=O)[C@@H](NC(=O)[C@H](C)NC(=O)[C@@H](NC(=O)[C@H](Cc1ccccc1)NC(=O)[C@H](Cc1c[nH]c2ccccc12)NC(=O)CN)[C@@H](C)OP(=O)(O)O)C(C)C)C(=O)O; listed as Streptococcus salivarius) [p(1-8) Sali10, chemically synthesized eight N-terminal unbridged residues of SrnA1 and SrnA2 with pThr4]”, the “effects on the neutrophils' CD marker expression” value in assay [4] is “Neither p (1-8) Sali10 (SEQ ID NO: 16) nor np (1-8) Sali10 showed effects”. Moreover, in assay [1] (40 μg/mL, compared with full-length salivaricin 10), the “neutrophil chemotaxis of the N-terminal tail analogues” value is reported as “very similar activity to the full-length salivaricin 10”. In assay [5], the “gene expression of CXCL10 (M1 macrophage biomarker)” value is listed as “downregulated” and the “gene expression of TGM2 (M2 macrophage biomarker) compared to M1 control cells” value is “upregulated”.
With “GWFTAVQLTLAGRCGRWFTGSFECTTNNVKCG (cysteine pairing not given here; also: lanthionine modifications; listed as Streptococcus salivarius) [SrnA1, lanthipeptide of salivaricin 10, phenylalanine at position 22]”, in the assay with M. luteus, the “antimicrobial activity (zone of inhibition) of the isolated peptide” value is “reduced”.
